Measured values reported in patent US10351575B2, “Bicyclic urea, thiourea, guanidine and cyanoguanidine compounds useful for the treatment of pain” (Array BioPharma Inc., priority 2012, dated 2019).

Key:
Assay in all cases: KinaseProfiler off-target kinase profiling
Type in all cases: biochemical
Conditions in all cases: 10 μM, ATP near Km
MAP3K5 = MAP3K5 (Homo sapiens (Human), UniProt Q99683)
Outline: (§1)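 Duplicate single-dose screen (10 μM). ATP concentration approximates Km for the individual kinase. Values = average POC.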

CK1gamma3 = CK1gamma3 (Homo sapiens (Human), UniProt Q9Y6M4)
Outline: as §1

PKCepsilon = PKCepsilon (Homo sapiens (Human), UniProt Q02156)
Outline: as §1

Plk3 = Plk3 (Homo sapiens (Human), UniProt Q9H4B4)
Outline: as §1

PAK6 = PAK6 (Homo sapiens (Human), UniProt Q9NQU5)
Outline: as §1

GRK7 = GRK7 (Homo sapiens (Human), UniProt Q8WTQ7)
Outline: as §1

EphA8 = EphA8 (Homo sapiens (Human), UniProt P29322)
Outline: as §1

WNK3 = WNK3 (Homo sapiens (Human), UniProt Q9BYP7)
Outline: as §1

CDK9/cyclinT1 = CDK9/cyclinT1 (Homo sapiens (Human), UniProt P50750)
Outline: as §1

Flt3 = Flt3 (Homo sapiens (Human), UniProt P36888)
Outline: as §1

AKT2 = AKT2 (Homo sapiens (Human), UniProt P31751)
Outline: as §1

BrSK1 = BrSK1 (Homo sapiens (Human), UniProt Q8TDC3)
Outline: as §1

PDGFRalpha = PDGFRalpha (Homo sapiens (Human), UniProt P16234)
Outline: as §1

mTOR = mTOR (Homo sapiens (Human), UniProt P42345)
Outline: as §1

Plk2 = Plk2 (Homo sapiens (Human), UniProt Q9NYY3)
Outline: as §1

MSK1 = MSK1 (Homo sapiens (Human), UniProt O75582)
Outline: as §1

FGFR1 = FGFR1 (Homo sapiens (Human), UniProt P11362)
Outline: as §1

NEK7 = NEK7 (Homo sapiens (Human), UniProt Q8TDX7)
Outline: as §1

PKCtheta = PKCtheta (Homo sapiens (Human), UniProt Q04759)
Outline: as §1

CDK6/cyclinD3 = CDK6/cyclinD3 (Homo sapiens (Human), UniProt Q00534)
Outline: as §1

PAK5 = PAK5 (Homo sapiens (Human), UniProt Q9P286)
Outline: as §1

PhKgamma2 = PhKgamma2 (Homo sapiens (Human), UniProt P15735)
Outline: as §1

TSSK2 = TSSK2 (Homo sapiens (Human), UniProt Q96PF2)
Outline: as §1

CAMK2d = CAMK2d (Homo sapiens (Human), UniProt Q13557)
Outline: as §1

PRKG1alpha = PRKG1alpha (Homo sapiens (Human), UniProt Q13976)
Outline: as §1

PDK1 = PDK1 (Homo sapiens (Human), UniProt O15530)
Outline: as §1

SGK3 = SGK3 (Homo sapiens (Human), UniProt Q96BR1)
Outline: as §1

Fes = Fes (Homo sapiens (Human), UniProt P07332)
Outline: as §1

CDK1/cyclinB = CDK1/cyclinB (Homo sapiens (Human), UniProt P06493)
Outline: as §1

CAMK1 = CAMK1 (Homo sapiens (Human), UniProt Q14012)
Outline: as §1

TEC Activated = TEC Activated (Homo sapiens (Human), UniProt P42680)
Outline: as §1

MEK1 = MEK1 (Homo sapiens (Human), UniProt Q02750)
Outline: as §1

Rsk4 = Rsk4 (Homo sapiens (Human), UniProt Q9UK32)
Outline: as §1

PRKG1beta = PRKG1beta (Homo sapiens (Human), UniProt Q13976)
Outline: as §1

DAPK2 = DAPK2 (Homo sapiens (Human), UniProt Q9UIK4)
Outline: as §1

DAPK1 = DAPK1 (Homo sapiens (Human), UniProt P53355)
Outline: as §1

EphA7 = EphA7 (Homo sapiens (Human), UniProt Q15375)
Outline: as §1

FGFR3 = FGFR3 (Homo sapiens (Human), UniProt P22607)
Outline: as §1

GRK5 = GRK5 (Homo sapiens (Human), UniProt P34947)
Outline: as §1

GRK7, sequence (Q8WTQ7 whole entry): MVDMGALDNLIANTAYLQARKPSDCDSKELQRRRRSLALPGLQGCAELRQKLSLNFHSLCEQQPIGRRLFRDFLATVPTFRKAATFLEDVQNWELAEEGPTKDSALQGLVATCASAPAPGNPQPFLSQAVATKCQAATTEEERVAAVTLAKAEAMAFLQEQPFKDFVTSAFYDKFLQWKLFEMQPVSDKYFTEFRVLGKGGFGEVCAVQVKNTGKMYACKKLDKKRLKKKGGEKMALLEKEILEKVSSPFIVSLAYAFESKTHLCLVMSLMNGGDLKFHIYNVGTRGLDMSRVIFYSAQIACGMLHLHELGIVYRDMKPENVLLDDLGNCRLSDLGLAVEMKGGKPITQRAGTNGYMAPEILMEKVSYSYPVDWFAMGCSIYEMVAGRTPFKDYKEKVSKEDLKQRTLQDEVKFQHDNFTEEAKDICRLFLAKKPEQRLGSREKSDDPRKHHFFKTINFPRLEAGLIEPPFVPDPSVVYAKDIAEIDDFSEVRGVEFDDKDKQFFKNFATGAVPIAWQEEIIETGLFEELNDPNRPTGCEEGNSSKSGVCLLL
MAP3K5, sequence (Q99683 whole entry): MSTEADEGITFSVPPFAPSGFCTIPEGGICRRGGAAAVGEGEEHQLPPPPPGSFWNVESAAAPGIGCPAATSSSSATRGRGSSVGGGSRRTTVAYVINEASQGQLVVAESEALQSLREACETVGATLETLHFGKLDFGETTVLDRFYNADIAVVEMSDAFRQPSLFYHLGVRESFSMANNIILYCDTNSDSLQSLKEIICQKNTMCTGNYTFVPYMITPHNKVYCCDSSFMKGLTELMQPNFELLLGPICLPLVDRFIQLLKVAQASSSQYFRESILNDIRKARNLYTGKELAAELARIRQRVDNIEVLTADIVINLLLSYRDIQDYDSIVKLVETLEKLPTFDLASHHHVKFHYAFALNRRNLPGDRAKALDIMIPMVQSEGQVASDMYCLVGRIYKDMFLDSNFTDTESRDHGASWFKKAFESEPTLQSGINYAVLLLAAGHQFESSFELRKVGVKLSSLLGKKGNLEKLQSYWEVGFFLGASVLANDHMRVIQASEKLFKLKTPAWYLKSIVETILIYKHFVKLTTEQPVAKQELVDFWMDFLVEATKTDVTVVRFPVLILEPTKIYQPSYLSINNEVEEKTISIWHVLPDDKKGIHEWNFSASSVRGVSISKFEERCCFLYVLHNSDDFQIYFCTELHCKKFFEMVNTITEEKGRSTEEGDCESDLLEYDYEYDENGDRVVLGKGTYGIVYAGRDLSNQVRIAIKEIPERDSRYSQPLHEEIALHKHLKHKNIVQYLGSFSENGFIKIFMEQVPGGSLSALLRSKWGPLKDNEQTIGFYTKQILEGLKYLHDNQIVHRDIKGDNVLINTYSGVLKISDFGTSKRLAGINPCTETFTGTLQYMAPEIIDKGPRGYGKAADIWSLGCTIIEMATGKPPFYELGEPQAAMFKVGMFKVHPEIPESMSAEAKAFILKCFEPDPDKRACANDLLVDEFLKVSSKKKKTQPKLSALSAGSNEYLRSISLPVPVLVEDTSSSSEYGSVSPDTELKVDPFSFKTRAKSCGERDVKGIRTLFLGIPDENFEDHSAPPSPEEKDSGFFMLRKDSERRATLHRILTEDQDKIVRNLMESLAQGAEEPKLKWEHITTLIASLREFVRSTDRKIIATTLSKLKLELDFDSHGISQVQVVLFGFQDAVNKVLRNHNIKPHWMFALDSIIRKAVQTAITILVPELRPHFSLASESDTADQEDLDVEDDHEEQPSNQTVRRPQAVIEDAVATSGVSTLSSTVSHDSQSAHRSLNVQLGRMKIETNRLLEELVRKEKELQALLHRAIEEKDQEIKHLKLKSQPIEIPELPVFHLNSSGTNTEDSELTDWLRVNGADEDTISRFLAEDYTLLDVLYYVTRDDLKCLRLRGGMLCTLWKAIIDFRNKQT
CK1gamma3, sequence (Q9Y6M4 whole entry): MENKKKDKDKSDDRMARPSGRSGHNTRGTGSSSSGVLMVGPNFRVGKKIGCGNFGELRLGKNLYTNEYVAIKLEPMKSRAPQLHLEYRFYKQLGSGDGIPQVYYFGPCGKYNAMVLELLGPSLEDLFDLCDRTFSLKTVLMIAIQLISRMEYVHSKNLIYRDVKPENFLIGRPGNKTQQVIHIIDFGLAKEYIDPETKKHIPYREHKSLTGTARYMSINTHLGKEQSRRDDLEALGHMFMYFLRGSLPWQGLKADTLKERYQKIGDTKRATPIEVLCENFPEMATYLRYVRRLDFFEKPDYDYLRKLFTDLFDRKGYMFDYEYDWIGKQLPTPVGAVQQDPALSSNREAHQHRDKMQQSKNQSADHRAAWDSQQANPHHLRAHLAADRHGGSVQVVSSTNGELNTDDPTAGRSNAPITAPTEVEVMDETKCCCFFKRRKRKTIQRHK
PDK1, sequence (O15530 whole entry): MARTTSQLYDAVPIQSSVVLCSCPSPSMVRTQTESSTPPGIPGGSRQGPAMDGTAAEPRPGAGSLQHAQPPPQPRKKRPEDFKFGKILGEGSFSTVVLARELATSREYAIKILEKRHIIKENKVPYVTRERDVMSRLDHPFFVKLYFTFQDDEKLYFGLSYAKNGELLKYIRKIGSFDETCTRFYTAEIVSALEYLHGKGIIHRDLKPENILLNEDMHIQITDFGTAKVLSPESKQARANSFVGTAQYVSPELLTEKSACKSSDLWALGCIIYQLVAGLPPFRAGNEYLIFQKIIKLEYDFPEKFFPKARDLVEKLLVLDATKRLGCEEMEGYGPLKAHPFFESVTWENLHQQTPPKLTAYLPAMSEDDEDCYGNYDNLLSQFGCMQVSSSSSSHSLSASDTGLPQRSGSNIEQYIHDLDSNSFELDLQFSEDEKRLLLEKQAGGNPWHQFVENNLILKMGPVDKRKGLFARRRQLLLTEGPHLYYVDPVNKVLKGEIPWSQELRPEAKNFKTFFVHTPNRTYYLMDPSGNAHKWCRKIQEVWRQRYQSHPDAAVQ
PhKgamma2, sequence (P15735 whole entry): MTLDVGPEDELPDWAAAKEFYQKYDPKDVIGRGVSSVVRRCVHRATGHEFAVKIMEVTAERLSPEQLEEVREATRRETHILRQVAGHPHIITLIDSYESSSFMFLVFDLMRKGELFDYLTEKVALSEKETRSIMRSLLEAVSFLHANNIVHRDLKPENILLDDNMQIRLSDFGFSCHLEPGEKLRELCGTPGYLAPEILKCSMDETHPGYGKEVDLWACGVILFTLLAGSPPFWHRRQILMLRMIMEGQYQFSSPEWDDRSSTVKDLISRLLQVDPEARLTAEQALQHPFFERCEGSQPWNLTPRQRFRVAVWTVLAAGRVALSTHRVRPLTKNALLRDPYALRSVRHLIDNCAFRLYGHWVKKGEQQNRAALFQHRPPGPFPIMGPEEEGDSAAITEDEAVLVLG
Plk3, sequence (Q9H4B4 whole entry): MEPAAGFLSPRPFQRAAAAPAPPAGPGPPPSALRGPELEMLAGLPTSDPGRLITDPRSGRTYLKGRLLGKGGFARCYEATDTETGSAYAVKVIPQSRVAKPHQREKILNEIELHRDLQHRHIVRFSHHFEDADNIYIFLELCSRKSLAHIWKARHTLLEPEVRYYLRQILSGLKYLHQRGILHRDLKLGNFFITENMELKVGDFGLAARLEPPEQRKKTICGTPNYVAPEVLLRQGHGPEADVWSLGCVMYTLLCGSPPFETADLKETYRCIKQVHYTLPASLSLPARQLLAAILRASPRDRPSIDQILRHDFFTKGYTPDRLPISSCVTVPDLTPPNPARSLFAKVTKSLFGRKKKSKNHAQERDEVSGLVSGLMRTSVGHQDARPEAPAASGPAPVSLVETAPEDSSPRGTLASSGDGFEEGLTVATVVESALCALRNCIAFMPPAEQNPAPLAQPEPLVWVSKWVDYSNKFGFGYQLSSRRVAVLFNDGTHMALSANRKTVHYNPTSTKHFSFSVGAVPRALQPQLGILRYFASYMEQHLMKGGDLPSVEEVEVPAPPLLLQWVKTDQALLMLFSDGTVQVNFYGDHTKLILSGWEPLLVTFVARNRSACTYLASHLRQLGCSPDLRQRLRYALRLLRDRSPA
CDK1/cyclinB, sequence (P06493 whole entry): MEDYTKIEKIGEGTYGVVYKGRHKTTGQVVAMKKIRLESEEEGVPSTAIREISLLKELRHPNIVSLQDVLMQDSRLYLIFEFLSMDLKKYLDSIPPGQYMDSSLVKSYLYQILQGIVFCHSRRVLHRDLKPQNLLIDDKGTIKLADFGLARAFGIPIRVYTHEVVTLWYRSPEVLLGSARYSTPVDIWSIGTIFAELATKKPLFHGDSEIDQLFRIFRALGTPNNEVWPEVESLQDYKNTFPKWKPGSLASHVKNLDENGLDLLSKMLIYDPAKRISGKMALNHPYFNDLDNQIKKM
CDK1/cyclinB, sequence (P14635 whole entry partner): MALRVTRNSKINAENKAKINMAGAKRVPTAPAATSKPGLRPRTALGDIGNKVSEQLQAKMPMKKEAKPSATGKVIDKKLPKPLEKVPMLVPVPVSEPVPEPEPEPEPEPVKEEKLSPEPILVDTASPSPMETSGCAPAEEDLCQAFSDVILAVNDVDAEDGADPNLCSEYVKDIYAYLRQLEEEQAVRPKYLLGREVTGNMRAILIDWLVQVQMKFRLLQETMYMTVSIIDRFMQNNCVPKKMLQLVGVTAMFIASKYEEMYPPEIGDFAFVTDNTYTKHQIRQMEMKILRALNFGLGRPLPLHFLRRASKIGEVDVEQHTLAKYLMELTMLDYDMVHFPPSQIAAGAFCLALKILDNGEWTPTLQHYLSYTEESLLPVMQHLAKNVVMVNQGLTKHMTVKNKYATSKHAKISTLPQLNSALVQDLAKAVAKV
NEK7, sequence (Q8TDX7 whole entry): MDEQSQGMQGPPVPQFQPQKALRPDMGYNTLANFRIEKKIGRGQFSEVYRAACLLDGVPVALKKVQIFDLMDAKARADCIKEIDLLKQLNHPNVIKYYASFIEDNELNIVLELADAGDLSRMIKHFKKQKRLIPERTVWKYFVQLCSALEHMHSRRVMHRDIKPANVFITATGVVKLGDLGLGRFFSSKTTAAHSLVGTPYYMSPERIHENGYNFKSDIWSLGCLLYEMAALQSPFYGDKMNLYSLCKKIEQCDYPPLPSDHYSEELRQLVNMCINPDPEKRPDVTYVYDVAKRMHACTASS

Row | Avg. POC (MAP3K5) [POC] | Avg. POC (CK1gamma3) [POC] | Avg. POC (PKCepsilon) [POC] | Avg. POC (Plk3) [POC] | Avg. POC (PAK6) [POC] | Avg. POC (GRK7) [POC] | Avg. POC (EphA8) [POC] | Avg. POC (WNK3) [POC] | Avg. POC (CDK9/cyclinT1) [POC] | Avg. POC (Flt3) [POC] | Avg. POC (AKT2) [POC] | Avg. POC (BrSK1) [POC] | Avg. POC (PDGFRalpha) [POC] | Avg. POC (mTOR) [POC] | Avg. POC (Plk2) [POC] | Avg. POC (MSK1) [POC] | Avg. POC (FGFR1) [POC] | Avg. POC (NEK7) [POC] | Avg. POC (PKCtheta) [POC] | Avg. POC (CDK6/cyclinD3) [POC] | Structure (SMILES) | also measured
1 | 105 | 118 | 101.5 | 103 | 119.5 | 108.5 | 128.5 | 109.5 | 127 | 96.5 | 132 | 119 | 123 | 116 | 102 | 113.5 | 114 | 94.5 | 101 | 100 | Cc1c(-c2cnn(C)c2)nn(-c2ccccc2)c1NC(=O)N[C@H]1CCCc2ccccc21 [Example 2, (S)-1-(1′,4-dimethyl-1-phenyl-1H,1′H-3,4′-bipyrazol-5-yl)-3-(1,2,3,4-tetrahydronaphthalen-1-yl)urea] | Avg. POC (PAK5): 109.5 POC; Avg. POC (PhKgamma2): 113 POC; Avg. POC (TSSK2): 118.5 POC; Avg. POC (CAMK2d): 119 POC; Avg. POC (PRKG1alpha): 127.5 POC; Avg. POC (PDK1): 120.5 POC; Avg. POC (SGK3): 137.5 POC; Avg. POC (Fes): 129.5 POC; Avg. POC (CDK1/cyclinB): 122.5 POC; Avg. POC (CAMK1): 109.5 POC; Avg. POC (TEC Activated): 153 POC; Avg. POC (MEK1): 100.5 POC; Avg. POC (Rsk4): 140 POC; Avg. POC (PRKG1beta): 122 POC; Avg. POC (DAPK2): 123.5 POC; Avg. POC (DAPK1): 108.5 POC; Avg. POC (EphA7): 116 POC; Avg. POC (FGFR3): 113.5 POC; Avg. POC (GRK5): 106.5 POC
2 | 111 | 104.5 | 97.5 | 115 | 139 | 117 | 122.5 | 112.5 | 106 | 90 | 127 | 111.5 | 104.5 | 104.5 | 103.5 | 127.5 | 90 | 133.5 | 117.5 | 103 | Cc1c(-c2cnn(C)c2)nn(-c2ccccc2)c1NC(=O)NC1CCOc2cc(F)ccc21 (stereo not drawn) [Example 12, 1-(1′,4-dimethyl-1-phenyl-1H,1′H-[3,4′-bipyrazol]-5-yl)-3-(7-fluorochroman-4-yl)urea] | Avg. POC (PAK5): 143 POC; Avg. POC (PhKgamma2): 110 POC; Avg. POC (TSSK2): 139 POC; Avg. POC (CAMK2d): 110.5 POC; Avg. POC (PRKG1alpha): 89.5 POC; Avg. POC (PDK1): 105.5 POC; Avg. POC (SGK3): 143.5 POC; Avg. POC (Fes): 110 POC; Avg. POC (CDK1/cyclinB): 107.5 POC; Avg. POC (CAMK1): 102 POC; Avg. POC (TEC Activated): 122.5 POC; Avg. POC (MEK1): 106.5 POC; Avg. POC (Rsk4): 101 POC; Avg. POC (PRKG1beta): 95.5 POC; Avg. POC (DAPK2): 102.5 POC; Avg. POC (DAPK1): 136 POC; Avg. POC (EphA7): 96.5 POC; Avg. POC (FGFR3): 109 POC; Avg. POC (GRK5): 83.5 POC
3 | 116.5 | 102.5 | 106.5 | 119 | 116.5 | 118 | 118.5 | 103.5 | 112.5 | 97.5 | 130 | 105.5 | 104.5 | 102.5 | 101.5 | 114 | 104.5 | 126 | 109 | 104.5 | Cc1c(-c2ccc(=O)n(C)c2)nn(-c2ccccc2)c1NC(=O)NC1CN(CC(F)(F)F)Cc2ccccc21 (stereo not drawn) [Example 26, 1-(4-methyl-3-(1-methyl-6-oxo-1,6-dihydropyridin-3-yl)-1-phenyl-1H-pyrazol-5-yl)-3-(2-(2,2,2-trifluoroethyl)-1,2,3,4-tetrahydroisoquinolin-4-yl)urea] | Avg. POC (PAK5): 121.5 POC; Avg. POC (PhKgamma2): 108.5 POC; Avg. POC (TSSK2): 128 POC; Avg. POC (CAMK2d): 99.5 POC; Avg. POC (PRKG1alpha): 98 POC; Avg. POC (PDK1): 115 POC; Avg. POC (SGK3): 104 POC; Avg. POC (Fes): 100.5 POC; Avg. POC (CDK1/cyclinB): 103 POC; Avg. POC (CAMK1): 106 POC; Avg. POC (TEC Activated): 113.5 POC; Avg. POC (MEK1): 97 POC; Avg. POC (Rsk4): 99.5 POC; Avg. POC (PRKG1beta): 111.5 POC; Avg. POC (DAPK2): 108.5 POC; Avg. POC (DAPK1): 135 POC; Avg. POC (EphA7): 108 POC; Avg. POC (FGFR3): 101 POC; Avg. POC (GRK5): 86 POC
4 | 116 | 102 | 97.5 | 103.5 | 116.5 | 117.5 | 109 | 103.5 | 106.5 | 115 | 121 | 114.5 | 112.5 | 94.5 | 103 | 118 | 104.5 | 122.5 | 117 | 108 | COCc1ccc2c(c1)C(NC(=O)Nc1c(C)c(-c3cnn(C)c3)nn1-c1ccccc1)COC2 (stereo not drawn) [Example 32, 1-(1′,4-dimethyl-1-phenyl-1H,1′H-[3,4′-bipyrazol]-5-yl)-3-(6-(methoxymethyl)isochroman-4-yl)urea] | Avg. POC (PAK5): 111 POC; Avg. POC (PhKgamma2): 102.5 POC; Avg. POC (TSSK2): 120.5 POC; Avg. POC (CAMK2d): 108.5 POC; Avg. POC (PRKG1alpha): 84 POC; Avg. POC (PDK1): 101.5 POC; Avg. POC (SGK3): 134 POC; Avg. POC (Fes): 112.5 POC; Avg. POC (CDK1/cyclinB): 104 POC; Avg. POC (CAMK1): 100 POC; Avg. POC (TEC Activated): 108.5 POC; Avg. POC (MEK1): 102 POC; Avg. POC (Rsk4): 95 POC; Avg. POC (PRKG1beta): 80.5 POC; Avg. POC (DAPK2): 103 POC; Avg. POC (DAPK1): 131 POC; Avg. POC (EphA7): 100.5 POC; Avg. POC (FGFR3): 107 POC; Avg. POC (GRK5): 90 POC
